Test results from paper PMC8653149, “Cyclic Analogs of Desferrioxamine E Siderophore for ^68Ga Nuclear Imaging: Coordination Chemistry and Biological Activity in Staphylococcus aureus” (Inorganic Chemistry, 2021).

Assays:
Assay type in all cases: physicochemical
[1] = Ga(III) complex stability constants by Fe(III)–Ga(III) metal–metal competition, potentiometric and UV–vis pH-metric titrations; settings: for logβ[GaL] / logβ[GaHL]+: M:L 1:1, T = 25°C; for logβ[GaL] / pKNHOH (pK of [GaL] formation from [GaHL]+) / logβ[GaHL]+: I = 0.1 M NaClO4; for pGa(III): calculated, pH 7.4; for pKNHOH (pK of [GaL] formation from [GaHL]+): T = 25 °C; for logβ[GaHL]+: competition UV-Vis titrations
Text: The next step was to determine the coordination specificity of investigated ligands toward Ga(III) ions. This is a somewhat challenging task because it requires indirect methods since the investigated complexes started to form in a very acidic environment, where potentiometric measurements were not accurate owing to the error of the glass electrode,[55],[56] and gallium is spectroscopically silent in UV–vis. To bypass this inconvenience, we implemented metal–metal competition assays. After addition of a significant molar excess of Ga(III), the LMCT band of Fe(III)-FOXE analog complexes was almost fully silenced as Ga(III) replaced Fe(III) in its complexes (Figure S5). By implementing those spectral changes, we were able to calculate the stability constants of the Ga(III)-FOXE analog species present below or around pH 2, [GaHL]^+ (Table S8). Stability constants for the [GaL] species, present above pH 2, could be determined by potentiometric titrations for Ga(III)-FOX 2-2, 2-3, 2-4, and 3-5, with logβ of [GaHL]^+ fixed in the calculations (Table S8). For Ga(III)-FOX 2-5, we could not observe any deprotonation step using this methodology. To confirm this behavior, UV–vis titration of the Ga(III)-FOX 2-5 analog complex was performed in the 200–300 nm spectral range (Figure S6) corresponding to the hydroxamate groups’ protonation state.[57]−[59] […] Above pH 4, there were no significant changes in maxima localization or absorbance intensity. Above pH 9, absorbance started to rise again, which indicated complex dissociation. […] Overall, the data indicated a decreased stability of [GaL] species when decreasing or increasing the ring size of Ga(III)-FOX 2-5, as reflected by pKNHOH (Table S8). Implementing this full coordination specification of Ga(III)-FOX complexes, we were able to calculate speciation plots which are presented in Figure 1 for the most efficient analogs FOX 2-4 and FOX 2-5, given here as examples, and in Figure S7 for others.
Proposed biomimetic analogs of cyclic siderophore FOXE bind Fe(III) ions starting from pH around 0, and the complexation is essentially complete far below or around pH of 2. Therefore, the stability constants of the first species formed in solution were determined from the spectrophotometric pH-dependent batch titrations carried out in the pH range of around 0.1–2 (Figure S3), by following the changes in the intense LMCT band of the metal complex. These values were further used as constant values in spectrophotometric or potentiometric titrations carried out in the pH range from 2 to 11 (Figure S3) to get the overall stability constants, logβFeL (Table S5). Since Ga(III)-FOX complexes present similar coordination properties, the first species start to form below pH 2 as well. However, in this case, we have used indirect methods to determine stability constants for Ga(III)-FOXE analogs and the Ga(III) complex with native FOXE, as Ga(III) complexes are spectroscopically silent in the UV–vis region. Metal–metal competition titrations were carried out at pH 1.6 for FOX 2-5 and FOX 2-4 and at pH 2 for the rest of the analogs and the native compound. The intense LMCT band of the Fe(III) complex was silenced after addition of a fixed volume of Ga(III) ions (Figure S5).
Potentiometric titrations were performed using an automatic titrator system Titrando 905 (Metrohm) equipped with a 800 Dosino dosing unit and a microburet with a volume of 2 mL. A combined glass electrode was calibrated each day for hydrogen ion concentration by 0.1 M HClO4 with CO2-free 0.1 M NaOH solutions. A stream of high purity grade argon, presaturated with water vapor, passed over the surface of the solution cell, filled with 3 mL of the studied solution. For each system, a minimum of four independent titrations was performed. […]

[2] = Fe(III) complex stability constants by potentiometric and pH-dependent UV–vis titrations; settings: I = 0.1 M NaClO4; for logβ[FeL] / logβ[FeHL]+ / pKNHOH of Fe(III) complex: M:L 1:1, T = 25°C; for logβFe(III)L: potentiometric [L] = 1 × 10^–3 M and UV–vis 5 × 10^–5 M, M:L 1:1, T = 25 °C
[3] = as above; settings: calculated for [L] = 1 × 10^–4, [M] = 1 × 10^–5 at pH 7.4
Description: Therefore, the stability constants of the first species formed in solution were determined from the spectrophotometric pH-dependent batch titrations carried out in the pH range of around 0.1–2 (Figure S3), by following the changes in the intense LMCT band of the metal complex. These values were further used as constant values in spectrophotometric or potentiometric titrations carried out in the pH range from 2 to 11 (Figure S3) to get the overall stability constants, logβFeL (Table S5). […] Metal–metal competition titrations were carried out at pH 1.6 for FOX 2-5 and FOX 2-4 and at pH 2 for the rest of the analogs and the native compound.
Potentiometric titrations were performed using an automatic titrator system Titrando 905 (Metrohm) equipped with a 800 Dosino dosing unit and a microburet with a volume of 2 mL. A combined glass electrode was calibrated each day for hydrogen ion concentration by 0.1 M HClO4 with CO2-free 0.1 M NaOH solutions. A stream of high purity grade argon, presaturated with water vapor, passed over the surface of the solution cell, filled with 3 mL of the studied solution. For each system, a minimum of four independent titrations was performed. The purity of ligand and accurate concentration of ligand solution were determined before each experiment with the Gran method[68] by potentiometric titration of the 3 mL sample of the ligand, with [L] ∼ 1 × 10^–3 M. In separate potentiometric titrations, the metal-to-ligand ratio was 1:1, and the concentration of metal was 2 × 10^–3 M. The potentiometric data were refined to obtain the overall Fe(III)-FOXE and Ga(III)-FOXE derivative binding constants (logβFe(III)L, logβGa(III)L).
The absorption measurements (200 nm–800 nm) were performed on a Varian Cary 300 Bio UV–visible spectrophotometer. The solutions were measured in high precision Quartz […] cuvettes (1 and 3 mL) with 1 cm lightpath (Hellma).
Two series of experiments were performed: (i) in the pH range of 0.1–2 and (ii) between pH 2 and 11. In the first series of experiments, (i) the stock solution of the ligand was divided into various batches followed by Fe(III) addition, with a constant total volume of 2 mL, [Fe(III)] = 2 × 10^–4 M, and a metal-to-ligand molar ratio of 1:1. The pH was controlled by concentration of the perchloric acid. After preparation, each solution was allowed to equilibrate for 1 h at 25 °C, and then its UV–vis spectrum was recorded.
The experimental sets with over 140 points collected in the pH range 2–11 for a single potentiometric measurement were imported to the […] software,[69] which uses nonlinear least-squares methods for data treatment. Spectroscopic data were refined using SPECFIT/32 software, which uses factor analysis to reduce the absorbance matrix and to extract the eigenvalues prior to the multiwavelength fit of the reduced data set according to the Marquardt algorithm and adjusts the absorptivity and the stability constants of the species formed at equilibrium.[70]−[72] Standard deviation was used for the calculation of the uncertainties in logβ. Speciation plots were prepared using HYSS software,[73] implementing data gathered in Tables S4, S5, and S8. Raw data was processed using Origin 7.0.

[4] = UV-Vis pH-dependent titrations, 1·10^-4 M
[5] = potentiometric, [L] = 1·10^-3 M

## O=C1CCCCCN(O)C(=O)CCNC(=O)CCCCCN(O)C(=O)CCNC(=O)CCCCCN(O)C(=O)CCN1 [FOX 2-5]
[1]; UV-Vis (metal–metal competition) titrations, [L] = 1·10^-4 M
  logβ[GaL]: 29.52 (6)
[1]
  pGa(III): 25.2
[2]; [4]
  logβ[FeL]: 31.32 (8)
[3]
  pFe(III): 27.0

## O=C1CCCCN(O)C(=O)CCNC(=O)CCCCN(O)C(=O)CCNC(=O)CCCCN(O)C(=O)CCN1 [FOX 2-4]
[1]
  pKNHOH (pK of [GaL] formation from [GaHL]+): 2.56
  pGa(III): 21.8
[1]; [L] = 1·10^-4 M
  logβ[GaHL]+: 28.84 (5)
[1]; [5]
  logβ[GaL]: 26.28 (1)
[2]; [4]
  logβ[FeHL]+: 30.83 (4)
  logβ[FeL]: 28.71 (7)
  pKNHOH of Fe(III) complex: 2.12
[2]
  logβFe(III)L: 28.71(7)
[3]
  pFe(III): 24.3

## O=C1CCCN(O)C(=O)CCNC(=O)CCCN(O)C(=O)CCNC(=O)CCCN(O)C(=O)CCN1 [FOX 2-3]
[1]
  pKNHOH (pK of [GaL] formation from [GaHL]+): 2.28
  pGa(III): 20.8
[1]; [L] = 1·10^-4 M
  logβ[GaHL]+: 28.30 (4)
[1]; [5]
  logβ[GaL]: 26.02 (1)
[2]; [4]
  logβ[FeHL]+: 30.44 (5)
  logβ[FeL]: 26.70 (9)
  pKNHOH of Fe(III) complex: 3.74
[2]
  logβFe(III)L: 27.22(2)
[2]; [5]
  logβ[FeL]: 27.22 (2)
  pKNHOH of Fe(III) complex: 3.22
[3]
  pFe(III): 22.7

## O=C1CCN(O)C(=O)CCNC(=O)CCN(O)C(=O)CCNC(=O)CCN(O)C(=O)CCN1 [FOX 2-2]
[1]
  pGa(III): 21.4
[1]; [L] = 1·10^-4 M
  logβ[GaHL]+: 28.48 (4)
[1]; [5]
  logβ[GaL]: 26.52 (5)
[2]; [4]
  logβ[FeHL]+: 30.64 (6)
[2]
  logβFe(III)L: 25.92(8)
[2]; [5]
  logβ[FeL]: 25.92 (8)
  pKNHOH of Fe(III) complex: 4.72
[3]
  pFe(III): 21.5

## O=C1CCCCCN(O)C(=O)CCCNC(=O)CCCCCN(O)C(=O)CCCNC(=O)CCCCCN(O)C(=O)CCCN1 [FOX 3-5]
[1]
  pKNHOH (pK of [GaL] formation from [GaHL]+): 2.87
  pGa(III): 22.6
[1]; [L] = 1·10^-4 M
  logβ[GaHL]+: 29.45 (1)
[1]; [5]
  logβ[GaL]: 26.58 (4)
[2]; [4]
  logβ[FeL]: 28.59 (3)
  pKNHOH of Fe(III) complex: 2.54
[2]; [5]
  logβ[FeL]: 28.81 (1)
  pKNHOH of Fe(III) complex: 2.32
[3]
  pFe(III): 24.1
